Experiment [1] concerns the target PI3-kinase p110-delta/p85-alpha (Homo sapiens, UniProt O00329). The experiment in a line: Inhibition of recombinant human full length His-tagged PI3K p110delta/p85alpha expressed in baculovirus expression system using PIP2/PS as substrate after 1 hr by ADP-Glo luminescence assay. In general terms: ADP-Glo turns the ADP formed in a reaction into a luminescent signal.

For experiment [2], the system named is KARPAS-422. The experiment in a line: Growth inhibition of human KARPAS422 cells by CCK8 assay. The class given is functional.
For experiment [3], the target named is PI3-kinase p110-alpha/p85-alpha (Homo sapiens, UniProt P42336). The experiment in a line: Inhibition of recombinant full length N-terminal His-tagged human PI3K p110alpha/p85alpha expressed in baculovirus expression system using PIP2/PS as substrate after 1 hr by ADP-Glo luminescence assay.
For experiment [4], the system named is U-87 MG. Briefly: Growth inhibition of human U87MG cells after 72 hrs by SRB assay. The class given is functional, U-87MG ATCC. For orientation: In SRB staining, fixed cells bind dye roughly in proportion to their protein.
Experiment [5] has as its target Phosphatidylinositol 4,5-bisphosphate 3-kinase catalytic subunit beta isoform (Homo sapiens, UniProt P42338). The experiment in a line: Inhibition of recombinant human PI3K p110beta using PIP2/PS as substrate after 1 hr by ADP-Glo luminescence assay.
The subject of experiment [6] is NCI-H460. Briefly: Growth inhibition of human NCI-H460 cells after 72 hrs by SRB assay. Format: functional. The conditions noted are these: NCI-H460, 72 h.
The test system of experiment [7] is T47D. The experiment in a line: Growth inhibition of human T47D cells after 72 hrs by SRB assay. Format: functional.
Experiment [8] relates to Pfeiffer. Briefly: Growth inhibition of human Pfeiffer cells by CCK8 assay. Format: functional. A general note: Formazan colour is commonly taken as a measure of viable cells.
In experiment [9] the target is Phosphatidylinositol 4,5-bisphosphate 3-kinase catalytic subunit gamma isoform (Homo sapiens, UniProt P48736).
Description: Inhibition of recombinant full length His-tagged human PI3K p110gamma expressed in baculovirus expression system using PIP2/PS as substrate after 1 hr by ADP-Glo luminescence assay
In experiment [10] the test system is MCF7. The experiment in a line: Growth inhibition of human MCF7 cells after 72 hrs by SRB assay. The conditions noted are these: MCF7, 72 h. The class given is functional.

The structures appear in SMILES notation. pIC50: −log10 of the molar value. Some results are limits rather than exact numbers.

Chain of PI3-kinase p110-delta/p85-alpha (P27986 whole entry): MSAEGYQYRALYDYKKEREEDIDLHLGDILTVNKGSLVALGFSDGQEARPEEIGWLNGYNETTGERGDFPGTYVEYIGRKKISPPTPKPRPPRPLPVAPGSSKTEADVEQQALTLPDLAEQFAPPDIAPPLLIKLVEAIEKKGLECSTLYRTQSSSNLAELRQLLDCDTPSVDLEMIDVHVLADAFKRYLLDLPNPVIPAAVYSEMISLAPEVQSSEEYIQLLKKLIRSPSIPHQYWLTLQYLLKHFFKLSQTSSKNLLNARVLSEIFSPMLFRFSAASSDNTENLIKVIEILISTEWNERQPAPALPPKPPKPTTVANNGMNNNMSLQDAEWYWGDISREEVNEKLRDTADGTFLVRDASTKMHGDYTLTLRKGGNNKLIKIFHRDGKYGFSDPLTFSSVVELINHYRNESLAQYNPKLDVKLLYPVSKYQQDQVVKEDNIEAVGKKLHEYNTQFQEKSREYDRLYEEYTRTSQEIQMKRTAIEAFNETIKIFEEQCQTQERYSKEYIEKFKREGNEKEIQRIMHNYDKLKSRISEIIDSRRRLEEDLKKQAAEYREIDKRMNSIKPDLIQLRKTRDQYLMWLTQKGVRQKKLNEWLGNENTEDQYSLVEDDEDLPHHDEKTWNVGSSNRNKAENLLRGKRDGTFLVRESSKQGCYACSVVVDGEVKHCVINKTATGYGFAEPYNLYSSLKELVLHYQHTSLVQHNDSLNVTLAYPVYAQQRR
Chain of PI3-kinase p110-delta/p85-alpha (O00329 whole entry): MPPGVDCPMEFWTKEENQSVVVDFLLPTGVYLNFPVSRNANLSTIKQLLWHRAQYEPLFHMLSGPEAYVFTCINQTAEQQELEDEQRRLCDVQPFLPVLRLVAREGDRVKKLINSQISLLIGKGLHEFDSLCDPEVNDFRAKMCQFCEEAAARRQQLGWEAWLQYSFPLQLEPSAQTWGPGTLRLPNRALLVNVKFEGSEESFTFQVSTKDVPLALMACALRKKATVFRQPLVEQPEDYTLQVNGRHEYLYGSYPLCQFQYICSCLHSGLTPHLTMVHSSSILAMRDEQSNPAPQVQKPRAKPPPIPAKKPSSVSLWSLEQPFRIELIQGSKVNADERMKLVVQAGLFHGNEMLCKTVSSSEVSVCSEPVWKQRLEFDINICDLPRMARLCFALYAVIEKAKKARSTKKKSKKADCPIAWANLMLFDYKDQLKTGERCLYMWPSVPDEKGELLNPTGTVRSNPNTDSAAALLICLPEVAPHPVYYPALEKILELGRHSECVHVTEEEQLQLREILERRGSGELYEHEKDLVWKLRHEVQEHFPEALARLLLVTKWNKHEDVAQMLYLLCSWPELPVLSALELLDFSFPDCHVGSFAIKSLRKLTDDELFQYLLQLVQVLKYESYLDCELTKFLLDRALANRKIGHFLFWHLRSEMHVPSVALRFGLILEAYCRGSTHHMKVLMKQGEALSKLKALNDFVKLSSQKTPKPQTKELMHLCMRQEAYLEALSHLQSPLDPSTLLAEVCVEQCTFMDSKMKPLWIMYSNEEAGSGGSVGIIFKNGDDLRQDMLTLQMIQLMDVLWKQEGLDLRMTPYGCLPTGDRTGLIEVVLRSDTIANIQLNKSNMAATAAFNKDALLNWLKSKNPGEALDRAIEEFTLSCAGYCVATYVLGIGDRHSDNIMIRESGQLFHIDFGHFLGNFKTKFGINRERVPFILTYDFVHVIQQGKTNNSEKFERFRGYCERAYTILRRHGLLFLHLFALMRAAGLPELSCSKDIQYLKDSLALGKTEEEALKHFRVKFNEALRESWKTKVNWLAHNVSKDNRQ
Chain of PI3-kinase p110-alpha/p85-alpha (P27986 whole entry): as the sequence (P27986 whole entry) above
Chain of PI3-kinase p110-alpha/p85-alpha (P42336 whole entry): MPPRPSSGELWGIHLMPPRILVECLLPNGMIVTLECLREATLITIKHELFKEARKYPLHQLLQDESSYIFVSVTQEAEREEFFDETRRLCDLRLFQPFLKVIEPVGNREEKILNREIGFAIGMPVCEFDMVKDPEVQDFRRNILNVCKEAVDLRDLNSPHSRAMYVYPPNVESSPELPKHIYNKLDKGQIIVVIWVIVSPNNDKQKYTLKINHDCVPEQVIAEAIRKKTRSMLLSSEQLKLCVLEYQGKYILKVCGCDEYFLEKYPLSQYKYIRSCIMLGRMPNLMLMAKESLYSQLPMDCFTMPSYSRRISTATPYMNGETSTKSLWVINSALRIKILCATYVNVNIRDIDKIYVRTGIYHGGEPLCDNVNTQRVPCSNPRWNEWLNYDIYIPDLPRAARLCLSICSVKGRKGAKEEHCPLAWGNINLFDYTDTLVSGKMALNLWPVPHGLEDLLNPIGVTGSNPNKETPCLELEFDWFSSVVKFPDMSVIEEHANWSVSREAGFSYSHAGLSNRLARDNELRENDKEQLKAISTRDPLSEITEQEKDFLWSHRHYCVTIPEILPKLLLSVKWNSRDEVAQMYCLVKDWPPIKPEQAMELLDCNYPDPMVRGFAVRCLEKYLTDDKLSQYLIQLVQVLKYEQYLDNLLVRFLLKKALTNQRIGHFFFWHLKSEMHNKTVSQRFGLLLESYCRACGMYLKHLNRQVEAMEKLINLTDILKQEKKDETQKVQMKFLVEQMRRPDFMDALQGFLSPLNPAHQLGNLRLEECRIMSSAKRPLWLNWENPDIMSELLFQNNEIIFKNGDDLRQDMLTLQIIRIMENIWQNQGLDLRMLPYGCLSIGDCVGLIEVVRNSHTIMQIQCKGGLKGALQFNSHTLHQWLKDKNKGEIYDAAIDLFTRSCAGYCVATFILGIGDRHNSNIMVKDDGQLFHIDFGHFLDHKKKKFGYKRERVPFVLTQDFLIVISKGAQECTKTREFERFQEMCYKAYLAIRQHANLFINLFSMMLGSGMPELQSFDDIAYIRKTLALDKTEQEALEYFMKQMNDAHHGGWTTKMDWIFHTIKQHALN
Chain of Phosphatidylinositol 4,5-bisphosphate 3-kinase catalytic subunit beta isoform (P42338 whole entry, canonical isoform): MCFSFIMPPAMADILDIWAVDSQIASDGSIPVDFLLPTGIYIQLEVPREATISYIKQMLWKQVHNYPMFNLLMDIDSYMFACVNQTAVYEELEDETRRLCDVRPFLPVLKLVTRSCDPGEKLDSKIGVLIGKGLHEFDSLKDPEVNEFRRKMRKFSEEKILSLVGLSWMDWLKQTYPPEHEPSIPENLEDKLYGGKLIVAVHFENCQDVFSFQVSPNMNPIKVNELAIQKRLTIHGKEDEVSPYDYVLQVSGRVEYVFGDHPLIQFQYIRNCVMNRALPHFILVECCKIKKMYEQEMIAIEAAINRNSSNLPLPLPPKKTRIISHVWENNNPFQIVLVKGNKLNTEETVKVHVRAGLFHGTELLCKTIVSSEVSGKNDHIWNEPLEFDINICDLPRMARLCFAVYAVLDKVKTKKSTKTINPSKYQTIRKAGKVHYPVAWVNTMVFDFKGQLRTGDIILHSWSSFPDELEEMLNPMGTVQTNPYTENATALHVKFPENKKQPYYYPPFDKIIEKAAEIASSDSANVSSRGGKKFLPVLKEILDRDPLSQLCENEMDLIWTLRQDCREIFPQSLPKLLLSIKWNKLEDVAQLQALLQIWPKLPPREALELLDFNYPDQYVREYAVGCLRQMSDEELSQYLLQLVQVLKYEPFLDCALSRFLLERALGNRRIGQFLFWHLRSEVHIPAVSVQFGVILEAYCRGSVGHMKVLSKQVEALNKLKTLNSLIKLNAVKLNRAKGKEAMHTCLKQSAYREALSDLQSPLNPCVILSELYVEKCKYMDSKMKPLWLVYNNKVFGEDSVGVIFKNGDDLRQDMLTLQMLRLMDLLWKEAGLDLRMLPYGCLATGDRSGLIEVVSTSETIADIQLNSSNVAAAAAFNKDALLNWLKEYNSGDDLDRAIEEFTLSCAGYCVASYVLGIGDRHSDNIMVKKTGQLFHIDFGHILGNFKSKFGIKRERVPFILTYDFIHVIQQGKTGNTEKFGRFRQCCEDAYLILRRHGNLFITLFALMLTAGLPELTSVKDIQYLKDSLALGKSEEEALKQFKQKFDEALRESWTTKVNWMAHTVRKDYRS
Chain of Phosphatidylinositol 4,5-bisphosphate 3-kinase catalytic subunit gamma isoform (P48736 whole entry, canonical isoform): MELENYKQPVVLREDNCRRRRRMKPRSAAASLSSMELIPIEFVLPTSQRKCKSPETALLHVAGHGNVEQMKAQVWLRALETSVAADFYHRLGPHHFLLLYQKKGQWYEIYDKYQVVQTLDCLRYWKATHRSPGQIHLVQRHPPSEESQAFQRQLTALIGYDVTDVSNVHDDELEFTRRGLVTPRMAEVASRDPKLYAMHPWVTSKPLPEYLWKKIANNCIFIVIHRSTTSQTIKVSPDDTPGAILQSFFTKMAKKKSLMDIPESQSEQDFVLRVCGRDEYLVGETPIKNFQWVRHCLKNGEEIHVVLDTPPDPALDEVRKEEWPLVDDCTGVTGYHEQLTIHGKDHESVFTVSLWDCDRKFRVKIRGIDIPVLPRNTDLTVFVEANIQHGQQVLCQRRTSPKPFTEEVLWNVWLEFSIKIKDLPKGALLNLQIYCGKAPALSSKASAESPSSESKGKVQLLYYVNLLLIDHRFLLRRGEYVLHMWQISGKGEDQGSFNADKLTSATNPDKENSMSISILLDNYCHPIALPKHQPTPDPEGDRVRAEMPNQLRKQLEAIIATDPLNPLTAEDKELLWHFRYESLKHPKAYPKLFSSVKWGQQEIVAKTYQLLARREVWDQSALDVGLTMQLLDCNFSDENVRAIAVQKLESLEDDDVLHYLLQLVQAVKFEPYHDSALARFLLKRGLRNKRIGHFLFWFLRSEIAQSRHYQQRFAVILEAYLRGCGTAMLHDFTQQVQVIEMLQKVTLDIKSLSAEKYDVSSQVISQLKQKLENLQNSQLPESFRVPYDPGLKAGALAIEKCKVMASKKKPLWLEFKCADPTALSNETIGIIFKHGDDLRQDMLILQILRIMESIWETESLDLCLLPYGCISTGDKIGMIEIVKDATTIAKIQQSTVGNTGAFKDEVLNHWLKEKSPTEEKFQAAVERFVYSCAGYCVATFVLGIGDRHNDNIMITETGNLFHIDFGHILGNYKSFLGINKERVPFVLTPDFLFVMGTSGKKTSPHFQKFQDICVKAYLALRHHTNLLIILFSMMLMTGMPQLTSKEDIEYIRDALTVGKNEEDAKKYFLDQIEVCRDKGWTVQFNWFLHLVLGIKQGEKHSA

The pIC50 is the negative decadic logarithm of the IC50, by convention in mol/L. The GI50 is the concentration at which growth is held to half of that of the control. Consider `O=S(=O)(Nc1cc(-c2cnc3[nH]cc(-c4ccncc4)c3c2)cnc1Cl)c1ccccc1F`, for which the pIC50 in experiment [1] is 9.30; in experiment [3], 9.00; in experiment [5] it was 8.52; in experiment [9], 9.15. Moreover, the GI50 in experiment [2] was 350 nM; in [4], 7130 nM; in experiment [6] it was greater than 10000 nM; in [7], 1790 nM; in experiment [8], 290 nM; in experiment [10], 2500 nM.
As for `O=S(=O)(Nc1cc(-c2cnc3[nH]ncc3c2)cnc1Cl)c1ccccc1`, the pIC50 in experiment [1] is 9.00; in experiment [3], 7.29; in experiment [5], 7.54; in [9], 7.43. In addition, the GI50 in [2] was 1090 nM; in experiment [4], 8940 nM; in experiment [6], 7610 nM; in [7] it was 4400 nM; in experiment [8], 1160 nM; in experiment [10], 7400 nM.
In turn, `CC(=O)Nc1ccc(-c2cnc(Cl)c(NS(=O)(=O)c3ccccc3)c2)cn1` gave a pIC50 in [9] of 6.38.
`O=S(=O)(Nc1cc(-c2cnc3[nH]ccc3c2)cnc1Cl)c1ccccc1`: the pIC50 was 9.00 in experiment [1], 7.46 in experiment [3], 7.46 in experiment [5] and 7.01 in experiment [9]. In addition, the GI50 in experiment [2] was 6710 nM; in [4], greater than 10000 nM; in experiment [6], greater than 10000 nM; in [7] it was greater than 10000 nM; in [8] it was 5500 nM; in experiment [10] it was greater than 10000 nM.
As for `CN(C)C(=O)Nc1ccc(-c2cnc(Cl)c(NS(=O)(=O)c3ccccc3)c2)cn1`, the pIC50 in experiment [9] is 7.17.
On the same count and under the same terms, the same measure for `Cc1cc2cc(-c3cnc(Cl)c(NS(=O)(=O)c4ccccc4)c3)cnc2[nH]1`: 7.20; for `Nc1ccc(-c2cnc(Cl)c(NS(=O)(=O)c3ccccc3)c2)cn1`: 6.43.
The same measure, in the same setting: for `Cc1ncc(-c2ccc(N)nc2)cc1NS(=O)(=O)c1ccccc1` the value was 6.42; for `Nc1ccc(-c2cnc(N)c(NS(=O)(=O)c3ccccc3)c2)cn1`, 5.53.
Same read-out and setting: for `O=C(Nc1ccc(-c2cnc(Cl)c(NS(=O)(=O)c3ccccc3)c2)cn1)C1CC1` the value was 6.35.
`CCNc1ccc(-c2cnc(Cl)c(NS(=O)(=O)c3ccccc3)c2)cn1` showed a pIC50 in experiment [9] of 5.83.
As to `O=S(=O)(Nc1cc(-c2cnc3[nH]cc(-c4ccncc4)c3c2)cnc1Cl)c1ccccc1`, the pIC50 in [1] was 9.22; in [3], 9.00; in [5] it was 8.70; in experiment [9] it was 9.30. The GI50 was found to be 120 nM in experiment [2]; 8950 nM in experiment [4]; 3900 nM in [6]; 1500 nM in experiment [7]; 100 nM in experiment [8]; 2140 nM in [10].
For the compound `O=S(=O)(Nc1cc(-c2cnc3[nH]cc(-c4ccncc4)c3c2)cnc1Cl)c1ccc(F)cc1`, the pIC50 is 9.40 in [1], 9.00 in [3], 8.70 in [5] and 9.15 in experiment [9]. For the same compound, the GI50 in [2] is 370 nM; in [4], greater than 10000 nM; in [6], 6190 nM; in [7], 1300 nM; in experiment [8], 410 nM; in experiment [10], 2910 nM.
`O=S(=O)(Nc1cc(-c2cnc3[nH]c(-c4ccccc4)cc3c2)cnc1Cl)c1ccccc1` showed a pIC50 in experiment [9] of 6.57.
On the same count and under the same terms, for `CS(=O)(=O)Nc1ccc(-c2cnc(Cl)c(NS(=O)(=O)c3ccccc3)c2)cn1` the value was 5.32.
Regarding `Cn1c(=O)n(-c2ccc(C(C)(C)C#N)cc2)c2c3cc(-c4cnc5ccccc5c4)ccc3ncc21` [DACTOLISIB], the GI50 came to 280 nM in [4], 610 nM in experiment [6], 300 nM in experiment [7] and 60 nM in experiment [10].
In the case of `CC[C@H](Nc1ncnc2[nH]cnc12)c1nc2cccc(F)c2c(=O)n1-c1ccccc1` [IDELALISIB], the values for the GI50 in experiment [2] and in experiment [8] were 680 nM and 740 nM, respectively.
With `O=S(=O)(Nc1cc(-c2cnc3[nH]nc(-c4ccncc4)c3c2)cnc1Cl)c1ccccc1`, the pIC50 in [1] is 9.15; in experiment [3] it was 9.00; in [5] it was 8.40; in experiment [9] it was 8.15. For the same compound, the GI50 turned out to be 170 nM in experiment [2]; 3120 nM in experiment [4]; 2500 nM in experiment [6]; 520 nM in [7]; 150 nM in experiment [8]; 690 nM in experiment [10].
`COc1ncc(-c2ccc(N)nc2)cc1NS(=O)(=O)c1ccccc1` had a pIC50 in [9] of 5.69.
As for `O=S(=O)(Nc1cc(-c2cnc3[nH]nc(-c4ccccc4)c3c2)cnc1Cl)c1ccccc1`, the pIC50 in [1] is 9.00; in experiment [3], 8.70; in experiment [5], 8.22; in [9] it was 7.77. The GI50 in experiment [2] is 1230 nM; in [4], greater than 10000 nM; in [6] it was 8650 nM; in experiment [7], 4190 nM; in experiment [8], 1300 nM; in [10], 7370 nM.
`CCc1cc2cc(-c3cnc(Cl)c(NS(=O)(=O)c4ccccc4)c3)cnc2[nH]1` showed a pIC50 in [9] of 6.81.
Same read-out and setting: for `Nc1ccc(-c2cncc(NS(=O)(=O)c3ccccc3)c2)cn1` the value was 5.80.
On to `O=S(=O)(Nc1cc(-c2cnc3[nH]cc(-c4ccccc4)c3c2)cnc1Cl)c1ccccc1`, for which the pIC50 was 9.00 in [1], 8.70 in experiment [3], 7.41 in [5] and 7.82 in experiment [9]. Moreover, the GI50 in experiment [2] is 1830 nM; in [4], greater than 10000 nM; in [6], greater than 10000 nM; in experiment [7], 7720 nM; in [8], 1520 nM; in [10], greater than 10000 nM.

Values taken from ChEMBL document CHEMBL4190336, “Discovery of a Novel Series of 7-Azaindole Scaffold Derivatives as PI3K Inhibitors with Potent Activity” (ACS Med Chem Lett, 2017).
